Assay results taken from patent US5049372A, “Anticancer activities in a host by increasing blood and plasma adenosine 5'-triphosphate (ATP) levels” (priority 1988, dated 1991).

Columns and labels:
human subjects = settings: slow injections or infusions of the same dose (40 mg); cited from earlier work
[1] = Rate of extracellular ATP degradation by human blood in vitro (Table 6); assay type: in vitro ADME; settings: 1 mM, 37° C.
Protocol: (§1) *Blood (450 μl) was withdrawn into a syringe containing either 50 μ
(§2) of citratedextrose or 50 μl of heparin (100 U/ml). Whole blood was the
(§3) added to 1 mM of [^3 H]ATP in saline (25 μl) and at various time
(§4) points blood aliquots (90 μl) were removed and centrifuged. Plasma (20
(§5) μl) was withdrawn and added to 1 ml of icecold trichloroacetic acid.
(§6) Thin layer chromatography on poly(ethylene)imine cellulose was performed
(§7) according to published procedures. The rate of degradation of 1 mM of
(§8) [^3 H]ATP was linear for mouse or human blood during the initial 30
(§9) minute incubation at 37° C.

[2] = Rate of extracellular ATP degradation by mouse blood in vitro (Table 6); assay type: in vitro ADME; settings: 1 mM, 37° C.
Protocol: as §1, §2, §3, §4, §5, §6, §7, §8, §9

For Nc1ncnc2c1ncn2[C@@H]1O[C@H](COP(=O)(O)OP(=O)(O)OP(=O)(O)O)[C@@H](O)[C@H]1O [ATP, adenosine 5'-triphosphate], the “Response to slow injection or infusion in human subjects” value (human subjects) is given as “much lesser or no response at all”, the “Rate of extracellular ATP degradation” value ([1]; citrate) is given as 1.75 pmol/µL/min and the “Rate of extracellular ATP degradation” value ([1]; heparin) is given as 4.07 pmol/µL/min. The “Rate of extracellular ATP degradation” value ([2]; citrate) was 6.87 pmol/µL/min and the “Rate of extracellular ATP degradation” value ([2]; heparin) was 10.21 pmol/µL/min.
